The supplement of paper PMC6470124

Legend:
[1] = absolute recovery over vacuum-assisted evaporative concentration; higher = better recovery; details: enrichment method: VEC
In short: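 Water samples (influent 6 mL, effluent 15 mL, surface and nanopure water 60 mL) were spiked with standards before concentration, after concentration or not at all, at 200 ng/L (nanopure/surface) or 1000 ng/L (wastewater), with class- and compound-specific adjustments. They were evaporated at 55 °C and 20 mbar to about 0.3 mL, brought to 0.4 mL and centrifuged. Internal standards were added afterwards and samples were analysed by LC-HRMS/MS. Absolute recovery was (response ratio pre − unspiked)/(post − unspiked) × 100, using averages of ≥ 2 replicates.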

[2] = LC retention time (Atlantis T3, 5-95% MeOH gradient, 0.1% formic acid); higher = more retained / less polar
In short: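 Retention times were recorded for reference standards on a polar reversed-phase C18 column. The standards were of purity ≥ 95%, and the Atlantis T3 column (3 × 150 mm, 3 μm) was run at 0.3 mL/min with a gradient from 5 to 95% methanol over 17.5 min, both water and methanol containing 0.1% formic acid. Detection used high-resolution tandem mass spectrometry on a QExactive Plus, with positive and negative electrospray in separate runs, and peaks were integrated in TraceFinder (5 ppm tolerance, at least three points per peak) before being checked by hand.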

[3] = absolute recovery over mixed-bed multilayer solid-phase extraction; higher = better recovery; details: enrichment method: SPE
In short: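 Wastewater (100–250 mL, pH 6.5, glass-fibre filtered) and unfiltered nanopure water (1000 mL) were extracted on a three-layer mixed-bed cartridge, with standards spiked before extraction, after it, or not at all at 1000 ng/L and 200 ng/L respectively, apart from some classes. Internal standards were then added for liquid chromatography with high-resolution tandem mass spectrometry in both ionisation modes. Absolute recovery compares background-corrected response ratios of pre- and post-spiked samples across at least two replicates.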

| SMILES | absolute recovery ([1]; wastewater effluent) [%] | absolute recovery ([1]; wastewater influent) [%] | LC retention time [2] [min] | absolute recovery ([3]; nanopure water) [%] | absolute recovery ([3]; surface water) [%] | absolute recovery ([3]; wastewater effluent) [%] | absolute recovery ([3]; wastewater influent) [%] |
| --- | --- | --- | --- | --- | --- | --- | --- |
| Cc1ccc(NC=O)c(C)c1 [2-4-dimethylphenylformamid] | 108 | 132 | 16.5 | 107 | 101 | 99.8 | 96.3 |
| COc1ccc(C(C[N+](C)(C)[O-])C2(O)CCCCC2)cc1 (stereo not drawn) [Venlafaxine-N-Oxide] | 105 | 107 | 14.6 | 93.2 | 92.8 | 94.6 | 79.7 |
| c1cncc(C2CCC[NH2+]2)c1 (stereo not drawn) [Nornicotine] | 111 | 118 | 4.38 | 65.4 |  | 47.9 | 43.6 |
| CS(=O)(=O)c1ccc(C(=O)[C-]2C(=O)CCCC2=O)c(Cl)c1COCC(F)(F)F [Tembotrione] | 104 | 116 | 18.9 | 91.7 | 89.4 | 90.9 | 91.3 |
| CC(C)[NH2+]CC(O)COc1ccc(CC(N)=O)cc1 (stereo not drawn) [Atenolol] | 107 | 103 | 8.64 | 92.1 | 92.6 | 87.4 | 90.6 |
| C=CCOc1ccccc1OCC(O)C[NH2+]C(C)C (stereo not drawn) [Oxprenolol] | 105 | 107 | 13.4 | 78.4 | 82.4 | 85.9 | 87.2 |
| CCS(=O)(=O)c1nc2ccccn2c1S(=O)(=O)[N-]C(=O)Nc1nc(OC)cc(OC)n1 [Sulfosulfuron] | 108 | 98.9 | 19.4 | 101 | 94.4 | 94.6 | 102 |
| COC(=O)C(Cc1ccccc1)NC(=O)C(CC(=O)[O-])[NH2+]CCC(C)(C)C (stereo not drawn) [Neotam] | 89.2 | 81.8 | 17.2 | 91.9 | 91.3 | 93.8 | 95.2 |
| CC(=O)N(C)N(C(=O)C(=O)N(C)C)c1ccccc1 [AMDOPH] | 114 | 114 | 13.9 | 94.8 | 93.2 | 93.2 | 90.8 |
| CCCOC(=O)NCCC[NH+](C)C [Propamocarb] | 105 | 105 | 8.99 | 83 | 83.9 | 84.1 | 86.5 |
| Nc1ccc(C=Cc2ccc(N)cc2S(=O)(=O)[O-])c(S(=O)(=O)[O-])c1 [4-4-diamino-2,2-stilbenedisulfonic-acid] | 30 |  | 4.15 | 14.5 | 3.4 | 9.1 | 7.8 |
| CC(C1CC1)C(O)(Cn1cncn1)c1ccc(Cl)cc1 (stereo not drawn) [Cyproconazol] | 92.9 | 95.8 | 20.1 | 99.4 | 88.2 | 87.6 | 93.5 |
| CCC1OC(=O)C(C)C(OC2CC(C)(OC)C(O)C(C)O2)C(C)C(OC2OC(C)CC([NH+](C)C)C2O)C(C)(O)CC(C)C[NH+](C)C(C)C(O)C1(C)O (stereo not drawn) [Azithromycin] | 97.9 |  | 13 | 77.4 | 93.7 | 90.8 | 96.7 |
| C[NH2+]C(C)C(=O)c1ccc(C)cc1 (stereo not drawn) [Mephedron (=4-Methylmethcathinon)] | 76.7 | 71.4 | 11.4 | 62.3 | 66.2 | 62.8 | 72.7 |
| CC(C)Oc1cccc(NC(=O)c2ccccc2C(F)(F)F)c1 [Flutolanil] | 94 | 103 | 19.5 | 104 | 104 | 95.7 | 98 |
| CCn1cc(C(=O)[O-])c(=O)c2cc(F)c(N3CC[NH2+]CC3)cc21 [Norfloxacin] | 104 |  | 11.5 | 75.9 | 68.2 | 74 | 74.9 |
| CCCC(C)C1(CC)C(=O)N=C([S-])NC1=O (stereo not drawn) [Thiopental] | 77.5 | 82.5 | 18.7 | 49.9 | 83.4 | 66.9 | 73.1 |
| Clc1ccccc1C[NH+]1CCc2sccc2C1 [Ticlopidin] | 51 | 45.4 | 12.7 | 83.9 | 85.9 | 84.5 | 81.1 |
| C[NH2+]C(CC(C)C)C(=O)NC1C(=O)NC(CC(N)=O)C(=O)NC2C(=O)NC3C(=O)NC(C(=O)NC(C(=O)[O-])c4cc(O)cc(O)c4-c4cc3ccc4O)C(O)c3ccc(c(Cl)c3)Oc3cc2cc(c3OC2OC(CO)C(O)C(O)C2OC2CC(C)([NH3+])C(O)C(C)O2)Oc2ccc(cc2Cl)C1O (stereo not drawn) [Vancomycin] | 108 | 109 | 9.01 | 108 | 90.4 | 82 | 92.8 |
| CSc1nc(NC(C)C)nc(NC(C)C)n1 [Prometryn G] | 94.8 | 94.8 | 18.2 | 97.7 | 92.8 | 92.4 | 94.1 |
| O=C(Nc1ccc(F)cc1F)c1cccnc1Oc1cccc(C(F)(F)F)c1 [Diflufenican] | 106 | 101 | 21.4 | 96.6 | 92.4 | 88 | 87.2 |
| Nc1nc(=O)c2ncn(CCC(CO)CO)c2[nH]1 [Penciclovir] | 97.1 | 104 | 7.67 | 84.2 | 78.3 | 83 | 91.8 |
| CCCCNC(=O)OCC#CI [IPBC (=Iodocarb)] | 60.1 |  | 18.1 | 97.8 | 79.9 | 72.2 | 74.3 |
| CCOC(=O)C1=CC(OC(CC)CC)C(NC(C)=O)C([NH3+])C1 (stereo not drawn) [Oseltamivir] | 101 | 107 | 14.7 | 69.9 | 77.5 | 77.3 | 80.4 |
| [O-][n+]1nc(-n2ccnc2)nc2ccc(Cl)cc21 [Triazoxide] | 105 | 89 | 17.5 | 87.3 | 91.5 | 87.4 | 92.3 |
| CC(C)C([NH3+])C(=O)OCC(CO)OCn1cnc2c(=O)[nH+]c(N)[nH]c21 (stereo not drawn) [Valganciclovir] | 83.6 | 72.2 | 7.61 | 82.7 | 63.7 | 69.7 | 69.5 |

| SMILES | absolute recovery ([1]; wastewater effluent) [%] | absolute recovery ([1]; wastewater influent) [%] | LC retention time [2] [min] | absolute recovery ([3]; nanopure water) [%] | absolute recovery ([3]; surface water) [%] | absolute recovery ([3]; wastewater effluent) [%] | absolute recovery ([3]; wastewater influent) [%] |
| --- | --- | --- | --- | --- | --- | --- | --- |
| N#Cc1nn(-c2c(Cl)cc(C(F)(F)F)cc2Cl)c(N)c1S(=O)C(F)(F)F (stereo not drawn) [Fipronil] | 103 | 98.5 | 20.4 | 99 | 95.7 | 94.2 | 88.5 |
| O=c1[nH]c2c(c(=O)n1C1CCCCC1)CCC2 [Lenacil] | 102 | 103 | 18.6 | 93.2 | 87.6 | 92 | 92.4 |
| N#CCNC(=O)c1cnccc1C(F)(F)F [Flonicamid] | 99.6 | 106 | 12.2 | 96.3 | 101 | 99.5 | 96 |
| CC1CC2C3CCC4=CC(=O)C=CC4(C)C3(F)C(O)CC2(C)C1(O)C(=O)CO (stereo not drawn) [Dexamethason] | 106 | 105 | 18.7 | 92.3 | 86.2 | 91.2 | 94 |
| CCC(C)(C)C(=O)OC1=C(c2ccc(Cl)cc2Cl)C(=O)OC12CCCCC2 [Spirodiclofen] | 77.8 | 44.4 | 23.8 |  | 12.2 | 18 |  |
| O=c1ccn(C2OC(CO)C(O)C2(F)F)c(=O)[nH]1 (stereo not drawn) [2-2-Difluorodeoxyuridin] | 122 | 88.2 | 9.37 | 88.2 |  | 95.1 |  |
| C[NH2+]C1(c2ccccc2Cl)CCCCC1=O (stereo not drawn) [Ketamin] | 101 | 105 | 11.7 | 83.7 | 82.3 | 82.9 | 90.4 |
| CCNC(=O)NC(=O)C(C#N)=NOC [Cymoxanil] | 53.4 | 69.8 | 15.2 | 98.4 | 83.5 | 87.9 | 115 |
| CC(C)(Oc1ccc(Cl)cc1)C(=O)[O-] [Clofibric-acid] | 105 | 103 | 19.3 | 96.4 | 94.1 | 93.9 | 92.9 |
| CCC(CO)NCC[NH2+]C(CC)CO (stereo not drawn) [Ethambutol] | 102 | 124 | 3.04 | 75.8 | 64.3 | 66.3 | 66.2 |
| CCCC1COC(Cn2cncn2)(c2ccc(Cl)cc2Cl)O1 (stereo not drawn) [Propiconazol] | 104 | 101 | 21.1 | 97.2 | 94.8 | 91.8 |  |
| CN(C)C(=[NH2+])NC(N)=[NH2+] [Metformin] | 118 |  | 3.25 | 88.2 |  |  |  |
| C1=Cc2ccccc2Nc2ccccc21 [Iminostilben] | 22.9 | 37.9 | 20 | 90.1 | 82.6 | 79.4 | 89 |
| CON=C(C1=NOCCO1)c1ccccc1Oc1ncnc(Oc2ccccc2Cl)c1F [Fluoxastrobin] | 94.1 | 112 | 19.8 | 97.5 | 80.2 | 90.4 | 83 |
| CCCCOc1ccc(OCCC[NH+]2CCOCC2)cc1 [Pramoxine] | 105 | 91 | 15.1 | 87.7 | 95.3 | 89.4 | 84 |
| COC(=O)C1C(OC(=O)c2ccccc2)CC2CCC1[NH+]2C (stereo not drawn) [Cocaine] | 71.1 | 62.2 | 12.2 | 97.2 | 96.4 | 93.8 | 94.5 |
| CCc1ccc(CCOc2ccc(CC3SC(=O)[N-]C3=O)cc2)nc1 (stereo not drawn) [Pioglitazone] | 107 | 104 | 14.3 | 93.3 | 98.1 | 104 | 90.7 |
| Clc1cccc(N2CC[NH2+]CC2)c1 [1-(3-Chlorophenyl)-piperazine] | 103 | 99.6 | 12.6 | 70.3 | 74.7 | 68.1 | 79.3 |
| CC(C)(C)[NH2+]CC(O)COc1nsnc1N1CCOCC1 (stereo not drawn) [Timolol] | 106 | 103 | 12.3 | 82.7 | 83.1 | 86.3 | 83.9 |
| CCCC(NOCC)=C1C(=O)CC(C2CCCSC2)CC1=O (stereo not drawn) [Cycloxydim] | 87.3 | 76.6 | 22.3 | 73.9 | 78.4 | 76.3 | 92.2 |
| CCCOc1nc2ccc(I)cc2c(=O)n1CCC [Proquinazid] | 84.4 | 62.4 | 24.6 | 76.1 | 73.6 | 78 | 65 |
| CNC(=O)CSP(=S)(OC)OC [Dimethoat] | 102 | 103 | 14.4 | 93.4 | 90.7 | 93 | 92.3 |
| Nc1c(I)c(N)c(I)c(C(=O)[O-])c1I [3-5-Diamino-2-4-6-triiodobenzoic-acid] | 104 | 97.2 | 15.4 | 95.4 | 91.9 | 68.2 | 82.4 |
| CCN(CC)C(=O)Nc1ccc(OCC(O)C[NH2+]C(C)(C)C)c(C(C)=O)c1 (stereo not drawn) [Celiprolol] | 103 | 103 | 13 | 86.4 | 84.3 | 90.1 | 84.6 |
| NC(=O)N1c2ccccc2CC(=O)c2ccccc21 [Oxcarbazepin] | 87.8 | 78.5 | 16.4 | 84.4 | 84.7 | 82.7 | 83.7 |
